Measured values from patent US20160022689A1, “Triazine compound for resisting coccidiosis in chickens” (SHANGHAI VETERINARY RESEARCH INSTITUTE, CHINESE ACADEMY OF …, priority 2013, published 2016).
“And” between values parts separate entries of the source, which are not always exact repeats. Equal entries are not always repeated. Where two headings read alike, the source gives them in different places.

Tests used:
[1] = Acute toxicity test (LD50) of AZL in rats, oral gavage; type: in vivo, rat; details: both sexes, Sprague Dawley, rat, in vivo, po, single oral gavage, improved Karber's method
Method: (§1) Acute Toxicity Test (LD50) of AZL in Rats
(§2) AZL (99.10%): made by Shanghai Veterinary Research Institute, CAAS
(§3) Drug solvent: 0.5% sodium carboxymethyl cellulose
(§4) Before administration, AZL was added into 0.5% sodium carboxymethyl cellulose to prepare suspensions at different concentrations.
(§5) 1.2 Experimental animals: Specific pathogen-free (SPF) Sprague Dawley rats (50% female vs 50% male) were purchased from Shanghai Super-B&K laboratory animal Co., Ltd. (license number: SCXK (Hu): 2008-0016). Male and female rats were raised separately in the cages for more than 4 days before the experiments.
(§6) Through repeated preliminary experiments, the interval of LD0-LD100 was determined According to this interval, groups were divided and the interval between groups was determined. Eighty rats (180-220 g) were selected and randomly divided into 8 groups. Each group had 10 rats, with the same number of female and male. Drug dosage in 7 groups were 2358, 3000, 3817, 4856, 6178, 7860, and 10000 mg/kg, respectively. The rats in these groups received oral gavage once. The remaining one group was chosen as negative control group which was drenched orally with drug solvent. After administration, this group was continuously observed for 14 days to calculate the death rate.

Sprague Dawley rats = experiment: as above; type: in vivo, rat; details: oral gavage once, 14 days
Method: as §1, §2, §3, §4, §5, §6

Eimeria tenella = experiment: AZL application in preventing the coccidiosis induced by Eimeria tenella (drug in feed, infected cockerels); type: in vivo; set-up: key to ACI (anticoccidial index): ACI = (rel. weight gain + survival) − (lesion score + oocyst value); key to Cecal lesion score: average Johnson-Reid lesion score in group ×10; details: for ACI (anticoccidial index): ACI=(relative weight gain rate+survival rate)-(cecal lesion score+oocyst value); for Cecal lesion score: average lesion score in group x10; for Survival rate %: cockerels infected with 80000 sporulated oocysts of Eimeria tenella; for Relative weight gain rate %: relative to healthy control group; for Oocyst value: score from OPG ratio to infection control
Method: Application of AZL in Preventing the Coccidiosis Induced by Eimeria tenella
One-day-old Pudong yellow feather cockerels
If needed, it is added into the chicken compound feed without other drugs and well mixed. Two AZL concentrations are set: 5 mg/kg and 10 mg/kg.
If needed, it is added into the compound feed without other drugs and well mixed. Two drug concentrations are set: 5 mg/kg and 10 mg/kg.
4) Raw diclazuril material: If needed, it is added into the compound feed without other drugs and well mixed, with the diclazuril concentration of 1 mg/kg.
After 90 one-day-old Pudong yellow feather cockerels were raised in the healthy animal room for 14 days. They were divided into 9 groups randomly, with 10 cockerels each group. One of these groups was the healthy control group. The AZL addition groups had two different treatments (5 mg/kg and 10 mg/kg). In the groups with the addition of compounds with structural formula (IV) and (V) respectively, two concentrations were set as AZL. The diclazuril addition group at the concentration of 1 mg/kg was taken as drug control group. Besides, an infection control group was also established.
After grouping, the seven drug addition groups were fed with the feed containing specified drugs, while infection and healthy control groups were fed using pure feed without drugs. Each group drank freely. At the age of 15 day old, each cockerel in all the groups was infected with 80000 sporulated oocysts of Eimeria tenella, except for the healthy control group.
During the experimental period, food and water intake, mental state, illness and bloody stool were observed and recorded every day. At 5, 6 and 7 d after infection, the excrement in each group was collected to count the number of oocysts. The highest value was used for ACI calculation. During the experimental period, chicken death status was observed every day and the dead ones were autopsied. On the 8th day, chickens in all the groups were weighted and killed to observe and record weight gain and cecal lesion status.
1.5.1 Death rate: The percentage of the number of dead chicken because of infection to total number of experimental chicken.
1.5.2 Relative weight gain rate: The percentage of average weight gain of chickens in each infection group to that in the healthy control group
1.5.3 Cecal lesion score: It is scored by referring to the method by Johnson and Reid (Johnson J, Reid W M. Anticoccidial drugs: lesion scoring techniques in battery and floor-pan experiments with chickens.
Experimental Parasitology, 1970, 28 (1): 30-36). Cecal lesion score=average lesion score in a group×10.
1.5.4 Oocyst value: Cecal contents from all the chickens in each group were well mixed. The number of oocysts per gram (OPG) was calculated via Mc-Master's method. Ratio of oocyst number=(OPG in the negative control group or drug addition group÷OPG in the positive control group)×100% If the ratio is 0-1%, oocyst value is 0; if the ratio is 2%-25%, oocyst value is 5; if the ratio is 26%-50%, oocyst value is 10; if the ratio is 51%-75%, oocyst value is 20; if the ratio is 76%-100%, oocyst value is 40.
1.5.5 Anticoccidial index: ACI=(relative weight gain rate+survival rate)−(cecal lesion score+oocyst value)

rats = details: acute oral, improved Karber's method; cited from earlier work
[2] = drug concentration in feed 5 mg/kg
[3] = drug concentration in feed 10 mg/kg
[4] = drug concentration in feed 1 mg/kg

Structure (SMILES)	ACI (anticoccidial index) (Eimeria tenella; [2])	Cecal lesion score (Eimeria tenella; [2])	Survival rate % (Eimeria tenella; [2]) [%]	Relative weight gain rate % (Eimeria tenella; [2]) [%]	Oocyst value (Eimeria tenella; [2])	ACI (anticoccidial index) (Eimeria tenella; [3])	Cecal lesion score (Eimeria tenella; [3])	Survival rate % (Eimeria tenella; [3]) [%]	Relative weight gain rate % (Eimeria tenella; [3]) [%]	Oocyst value (Eimeria tenella; [3])	further results
CC(=O)Nc1ccc(Oc2ccc(-n3ncc(=O)[nH]c3=O)cc2C)cc1 [AZL, 2-{3-methyl-4-(4′-acetamidophenoxy)phenyl}-1,2,4-triazine-3,5(2H,4H)^− diketone]	180.8	5	100	90.8	5	189 and 189.1	5	100	99.1	5	LD50 at 14 days ([1]; 14 days observation, read-out: LD50): 4740 mg/kg; LD50 at 14 days ([1]; read-out: 95% confidence limit of LD50): 3750 to 5990 mg/kg; Death rate % (Sprague Dawley rats; dosage 2358 mg/kg): 0%; Death rate % (Sprague Dawley rats; dosage 3000 mg/kg): 30%; Death rate % (Sprague Dawley rats; dosage 3817 mg/kg): 50%; Death rate % (Sprague Dawley rats; dosage 4856 mg/kg): 50%; Death rate % (Sprague Dawley rats; dosage 6178 mg/kg): 70%; Death rate % (Sprague Dawley rats; dosage 7860 mg/kg): 70%; Death rate % (Sprague Dawley rats; dosage 10000 mg/kg): 90%; ACI (anticoccidial index) (Eimeria tenella; drug concentration in feed 10 mg/kg, listed as compound with structural formula (I)): 189
Cc1cc(-n2ncc(=O)[nH]c2=O)ccc1Oc1ccc([N+](=O)[O-])cc1 [Compound with structural formula IV, 2-{3-methyl-4-(4′-nitrophenoxy)phenyl}-1,2,4-triazine-3,5(2H,4H)-diketone, reference compound]	182.2	5	100	92.2	5	190.0	5	100	95.0	0	95% confidence limit of LD50 (rats): 644 to 916 mg/kg; median lethal dose (LD50) (rats): 768 mg/kg
Cc1cc(-n2ncc(=O)[nH]c2=O)ccc1Oc1ccc(N)cc1 [Compound with structural formula V, 2-{3-methyl-4-(4′-aminophenoxy)phenyl}-1,2,4-triazine-3,5(2H,4H)^− diketone]	151.5	15	100	81.5	15	158.1	10	100	83.1	15	–
N#CC(c1ccc(Cl)cc1)c1c(Cl)cc(-n2ncc(=O)[nH]c2=O)cc1Cl (centres unmarked) [Diclazuril, diclazuril, reference compound]	–	–	–	–	–	–	–	–	–	–	ACI (anticoccidial index) (Eimeria tenella; [4]): 182.1; Cecal lesion score (Eimeria tenella; [4]): 5; Survival rate % (Eimeria tenella; [4]): 100%; Relative weight gain rate % (Eimeria tenella; [4]): 92.1%; Oocyst value (Eimeria tenella; [4]): 5
